In ChEMBL document CHEMBL5046222, “Multifunctional Arylsulfone and Arylsulfonamide-Based Ligands with Prominent Mood-Modulating Activity and Benign Safety Profile, Targeting Neuropsychiatric Symptoms of Dementia” (J Med Chem, 2021) one finds pKb, MED and minimal effective dose data, which are given here for five molecules.

The target of data set [1] is 5-hydroxytryptamine receptor 6 (Homo sapiens) (UniProt P50406). The note with it: CHO-K1, filed as antagonist, time 1.0 hrs.
For data set [2], the species on record is Rattus norvegicus. To be noted: in vivo, ip, 10 min.
The species named for data set [3] is Rattus norvegicus. Nature of the data set: animal or person. To be noted: Wistar, ip, read-out: MED.

5-hydroxytryptamine receptor 6 (Homo sapiens), sequence (P50406 whole entry): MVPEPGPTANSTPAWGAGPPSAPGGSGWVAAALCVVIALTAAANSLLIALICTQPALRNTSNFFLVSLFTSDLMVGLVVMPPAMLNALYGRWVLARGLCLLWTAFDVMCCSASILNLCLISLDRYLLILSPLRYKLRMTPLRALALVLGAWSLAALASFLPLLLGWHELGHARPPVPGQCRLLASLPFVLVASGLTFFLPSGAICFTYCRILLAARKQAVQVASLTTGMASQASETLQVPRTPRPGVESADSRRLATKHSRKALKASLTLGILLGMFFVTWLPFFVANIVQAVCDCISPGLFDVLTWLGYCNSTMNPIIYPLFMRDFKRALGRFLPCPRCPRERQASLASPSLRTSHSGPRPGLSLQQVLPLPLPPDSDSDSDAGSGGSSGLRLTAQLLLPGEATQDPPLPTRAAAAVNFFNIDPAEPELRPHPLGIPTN

By pKb is commonly meant the Kb on a negative log10 scale, so that one unit is a factor of ten. Lower therefore signals a high Kb. Regarding `O=S(=O)(c1ccccc1)c1cnc2c(N3CCNCC3)cccc2c1`, the pKb in data set [1] came out at 9.47.
In the data set filed under Rattus norvegicus [2], `O=C1CC2(CCCC2)CC(=O)N1CCCCN1CCN(c2ncccn2)CC1` [BUSPIRONE] came in with an MED of 1 mg/kg.
The same measure, in the same setting: the figure for `CN1C(=O)CN=C(c2ccccc2)c2cc(Cl)ccc21` [DIAZEPAM] is 3 mg/kg; for `CN(C)CCCN1c2ccccc2CCc2ccccc21` [IMIPRAMINE] it is 10 mg/kg.
Consider `CC(C)COc1ccc(CNC(=O)N(Cc2ccc(F)cc2)C2CCN(C)CC2)cc1` [PIMAVANSERIN], for which the minimal effective dose in the data set listed under Rattus norvegicus [3] was 0.1 mg/kg. The molecule also returned an MED in the data set listed under Rattus norvegicus [2] of 0.1 mg/kg.
